Drawing on article PMC12118186 (2023), this text covers binding and Kd for four molecules.

The subject of experiment [1] is SA1 (DNA, aptamer) ACGACCTGACTTCCCATGGGATCTTCACTTAAATGGTCGT
As to the kind of experiment: ThT fluorescence displacement titration. The note with it: 100 mM Na+, pH 6.0, 1 μM DNA; for binding: 1 mM Mg2+, MES, 2 μM thioflavin T, 30 μM compound.

For experiment [2] the test system is unchanged. As to the kind of experiment: fluorescence enhancement. The note with it: 100 mM Na+, 1 mM Mg2+ (Figure 2 legend; methods: 5 mM); 10 mM MES, pH 6.0; 1 μM DNA, 2 μM thioflavin T; described as nonspecific.
Experiment [3] has the same test system. As to the kind of experiment: ITC. The note with it: 100 mM Na+, 5 mM Mg2+; 10 mM MES, pH 6.0, 25°C; one-site fit; 20 μM aptamer.
The subject of experiment [4] is SA2 (DNA, aptamer) ACGACGGGGGACCGGAAACAAGTGCAAAACGCTTCGTCGT
Put plainly: ThT fluorescence displacement titration. Conditions: 100 mM Na+, 1 mM Mg2+ (Figure 2 legend; methods: 5 mM); 10 mM MES, pH 6.0; apparent; tracer 2 μM thioflavin T; signal change only about 20%.

Structures are written as SMILES.

As for `CC(=O)Oc1ccccc1C(=O)O`, the binding result in experiment [1] is “no”.
With `Cc1ccc2c(c1)sc(-c1ccc(N(C)C)cc1)[n+]2C`, in experiment [2], the binding result was “yes”.
For `O=C(O)c1ccc(O)cc1`, the binding entry in experiment [1] is reported as “weak”.
For the molecule `O=C(O)c1ccccc1O`, the Kd in experiment [3] was 26.7 ± 5.6 µM; in experiment [1] (1 mM Mg2+ (Figure 2 legend; methods: 5 mM), 10 mM MES, apparent, tracer 2 μM thioflavin T), 5.8 µM; in experiment [4] it was 11 µM.
